Here are results for six compounds from patent US10206399B2, “Herbicidal composition comprising uracil compound as active ingredient” (Dongbu Farm Hannong Co., Ltd., priority 2012, dated 2019).

The test system of one series is Echinochloa crus. Conditions: for Echinochloa crus mortality, measured value: 20 days after treatment; for plant mortality, measured value: Echinochloa crus.
The subject of a further series is Abutilon theophrasti. Put plainly: whole plant or invertebrate. Conditions: for pest or weed control at 150 g/ha: read-out: plant mortality, measured value, 150 g/ha; for pest or weed control at 300 g/ha: read-out: plant mortality, measured value, 300 g/ha; for pest or weed control at 25 g/ha: read-out: Data (measured value) Abutilon theophrasti, 25 g/ha; for pest or weed control at 50 g/ha: read-out: Data (measured value) Abutilon theophrasti, 50 g/ha; for pest or weed control at 100 g/ha: read-out: Data (measured value) Abutilon theophrasti, 100 g/ha.

A further series concerns Digitaria sanguinalis. Conditions: for Digitaria sanguinalis mortality, measured value: 20 days after treatment; for plant mortality, measured value: Digitaria sanguinalis.
The subject of another series is Xanthium spinosum. Put plainly: whole plant or invertebrate. Conditions: for pest or weed control at 150 g/ha: read-out: plant mortality, measured value, 150 g/ha; for pest or weed control at 300 g/ha: read-out: plant mortality, measured value, 300 g/ha; for pest or weed control at 25 g/ha: read-out: Data (measured value) Xanthium spinosum, 25 g/ha; for pest or weed control at 50 g/ha: read-out: Data (measured value) Xanthium spinosum, 50 g/ha; for pest or weed control at 100 g/ha: read-out: Data (measured value) Xanthium spinosum, 100 g/ha.

The next series concerns Aeschynomene indica. Briefly: whole plant or invertebrate. The settings on record: for pest or weed control at 150 g/ha: read-out: plant mortality, measured value, 150 g/ha; for pest or weed control at 300 g/ha: read-out: plant mortality, measured value, 300 g/ha; for pest or weed control at 25 g/ha: read-out: Data (measured value) Aeschynomene indica, 25 g/ha; for pest or weed control at 50 g/ha: read-out: Data (measured value) Aeschynomene indica, 50 g/ha; for pest or weed control at 100 g/ha: read-out: Data (measured value) Aeschynomene indica, 100 g/ha.

Setting [1] is: 480 h, read-out: Abutilon theophrasti mortality, measured value.
Where [2] appears, read: read-out: plant mortality, measured value, 75 g/ha.
[3] abbreviates: 480 h, read-out: Xanthium spinosum mortality, measured value.
The mark [4] stands for this setting: 480 h, read-out: Aeschynomene indica mortality, measured value.
[5] abbreviates: read-out: plant mortality, measured value, 600 g/ha.

The structures appear in SMILES notation. Where two headings read alike, the source gives them in different places.

Excerpt for Abutilon theophrasti: (§1) X is % damage by uracil compound (a) of formula 1 at the rate of application of p kg/ha; Y is % damage by conventional herbicidal compound (b) at the rate of application of q kg/ha; and E is the expected damage caused by compounds (a) and (b) at a rate of application of p and q kg/ha.
(§2) The expected activity for a given combination of two herbicides can be calculated using equation 1 above.
Excerpt for Aeschynomene indica: as §1, §2
Excerpt for Digitaria sanguinalis: as §1, §2
Excerpt for Echinochloa crus: as §1, §2
Excerpt for Xanthium spinosum: as §1, §2

In general, mortality refers to the percentage killed. `CP(=O)(O)CCC(N)C(=O)O` (stereo not drawn) [Glufosinate, reference compound]: the “Echinochloa crus mortality, measured value” (shortened to “Echinochloa crus mortality”) is on record as 15% in the series on Echinochloa crus (75 g/ha), 29% in the series on Echinochloa crus (150 g/ha) and 60% in the series with Echinochloa crus (300 g/ha). Moreover, the “plant mortality, measured value” with Echinochloa crus (75 g/ha) is recorded as 15; in the series on Echinochloa crus (150 g/ha), 29; in the series on Echinochloa crus (300 g/ha), 60; with Digitaria sanguinalis (75 g/ha), 11; in the series on Digitaria sanguinalis (150 g/ha), 27; in the series on Digitaria sanguinalis (300 g/ha) it was 57. Moreover, the mortality at 75 g/ha stood at 7% in the series with Abutilon theophrasti (setting [1]), 13% in the series with Xanthium spinosum (setting [3]) and 5% in the series with Aeschynomene indica (setting [4]). Besides, the mortality at 150 g/ha in the series on Abutilon theophrasti (setting [1]) came out at 25%; with Xanthium spinosum (setting [3]), 25%; in the series with Aeschynomene indica (setting [4]), 18%. In addition, the mortality at 300 g/ha was 49% in the series with Abutilon theophrasti (setting [1]), 56% in the series with Xanthium spinosum (setting [3]) and 46% in the series on Aeschynomene indica (setting [4]). The results for the pest or weed control at 75 g/ha with Abutilon theophrasti (setting [2]), in the series with Xanthium spinosum (setting [2]) and in the series on Aeschynomene indica (setting [2]) were 7%, 13% and 5%, respectively. Besides, the pest or weed control at 150 g/ha in the series on Abutilon theophrasti was found to be 25%; with Xanthium spinosum, 25%; in the series with Aeschynomene indica it was 18%. Further, the pest or weed control at 300 g/ha in the series with Abutilon theophrasti came to 49%; in the series with Xanthium spinosum, 56%; in the series with Aeschynomene indica it was 46%. The “Digitaria sanguinalis mortality, measured value” (“Digitaria sanguinalis mortality” below) in the series with Digitaria sanguinalis (75 g/ha) was determined as 11%; with Digitaria sanguinalis (150 g/ha), 27%; in the series on Digitaria sanguinalis (300 g/ha), 57%.

As for `O=C(O)CNCP(=O)(O)O` [Glyphosate, reference compound], the figures for the “Echinochloa crus mortality” value in the series with Echinochloa crus (150 g/ha), in the series with Echinochloa crus (300 g/ha) and with Echinochloa crus (600 g/ha) were 12%, 23% and 48%, respectively. The “plant mortality, measured value” came out at 12 in the series on Echinochloa crus (150 g/ha); 23 in the series on Echinochloa crus (300 g/ha); 48 in the series with Echinochloa crus (600 g/ha); 8 in the series on Digitaria sanguinalis (150 g/ha); 18 with Digitaria sanguinalis (300 g/ha); 46 in the series with Digitaria sanguinalis (600 g/ha). Moreover, the figures for the mortality at 150 g/ha in the series with Abutilon theophrasti (setting [1]), in the series on Xanthium spinosum (setting [3]) and with Aeschynomene indica (setting [4]) were 8%, 11% and 9%, respectively. Moreover, the values for the mortality at 300 g/ha in the series with Abutilon theophrasti (setting [1]), with Xanthium spinosum (setting [3]) and with Aeschynomene indica (setting [4]) were 27%, 30% and 22%, respectively. Moreover, the mortality at 600 g/ha was found to be 59% with Abutilon theophrasti (setting [1]), 64% with Xanthium spinosum (setting [3]) and 47% in the series on Aeschynomene indica (setting [4]). Also, the pest or weed control at 150 g/ha in the series on Abutilon theophrasti came out at 8%; with Xanthium spinosum it was 11%; with Aeschynomene indica, 9%. Besides, the pest or weed control at 300 g/ha with Abutilon theophrasti turned out to be 27%; in the series on Xanthium spinosum, 30%; in the series on Aeschynomene indica, 22%. The pest or weed control at 600 g/ha in the series with Abutilon theophrasti (setting [5]) amounted to 59%; in the series on Xanthium spinosum (setting [5]) it was 64%; in the series with Aeschynomene indica (setting [5]), 47%. Further, the “Digitaria sanguinalis mortality” value was 8% in the series with Digitaria sanguinalis (150 g/ha), 18% in the series on Digitaria sanguinalis (300 g/ha) and 46% with Digitaria sanguinalis (600 g/ha).

Consider `CC(Oc1ccc(Oc2ncc(C(F)(F)F)cc2Cl)cc1)C(=O)O` (stereo not drawn) [Haloxyfop, reference compound], for which the “Echinochloa crus mortality” value with Echinochloa crus (12.5 g/ha) turned out to be 11%; in the series on Echinochloa crus (25 g/ha), 28%; with Echinochloa crus (50 g/ha) it was 58%. Besides, the mortality at 12.5 g/ha in the series on Abutilon theophrasti (setting [1]), in the series with Xanthium spinosum (setting [3]) and with Aeschynomene indica (setting [4]) was 0% throughout. Besides, the mortality at 25 g/ha with Abutilon theophrasti (setting [1]), with Xanthium spinosum (setting [3]) and in the series with Aeschynomene indica (setting [4]) was 0% throughout. Besides, the mortality at 50 g/ha in the series on Abutilon theophrasti (setting [1]), in the series on Xanthium spinosum (setting [3]) and with Aeschynomene indica (setting [4]) was 0% throughout. The “Digitaria sanguinalis mortality” value is given as 14% with Digitaria sanguinalis (12.5 g/ha), 29% in the series on Digitaria sanguinalis (25 g/ha) and 57% in the series on Digitaria sanguinalis (50 g/ha).

For `CCc1cnc(C2=NC(C)(C(C)C)C(=O)N2)c(C(=O)O)c1` (stereo not drawn) [Imazethapyr], the “Data (measured value) Echinochloa crus” value in the series with Echinochloa crus (25 g/ha) stood at 11; in the series with Echinochloa crus (50 g/ha), 26; with Echinochloa crus (100 g/ha), 53. Besides, the pest or weed control at 25 g/ha came out at 9% with Abutilon theophrasti, 9% in the series with Xanthium spinosum and 11% with Aeschynomene indica. Besides, the figures for the pest or weed control at 50 g/ha in the series with Abutilon theophrasti, in the series with Xanthium spinosum and with Aeschynomene indica were 24%, 20% and 25%, respectively. The figures for the pest or weed control at 100 g/ha with Abutilon theophrasti, with Xanthium spinosum and with Aeschynomene indica were 58%, 47% and 54%, respectively. The “Data (measured value) Digitaria sanguinalis” value with Digitaria sanguinalis (25 g/ha) stood at 11; in the series on Digitaria sanguinalis (50 g/ha) it was 26; in the series on Digitaria sanguinalis (100 g/ha), 62.

On to `Cc1cc(Cl)ccc1OC(C)C(=O)O` (stereo not drawn) [Mecoprop], for which the “Data (measured value) Echinochloa crus” value in the series on Echinochloa crus (200 g/ha), with Echinochloa crus (400 g/ha) and in the series on Echinochloa crus (800 g/ha) was 0 each time. For the same compound, the pest or weed control at 200 g/ha worked out at 14% with Abutilon theophrasti (read-out: Data (measured value) Abutilon theophrasti, 200 g/ha); 9% with Xanthium spinosum (read-out: Data (measured value) Xanthium spinosum, 200 g/ha); 8% with Aeschynomene indica (read-out: Data (measured value) Aeschynomene indica, 200 g/ha). The pest or weed control at 400 g/ha was determined as 29% with Abutilon theophrasti (read-out: Data (measured value) Abutilon theophrasti, 400 g/ha); 19% with Xanthium spinosum (read-out: Data (measured value) Xanthium spinosum, 400 g/ha); 24% in the series on Aeschynomene indica (read-out: Data (measured value) Aeschynomene indica, 400 g/ha). The pest or weed control at 800 g/ha in the series with Abutilon theophrasti (read-out: Data (measured value) Abutilon theophrasti, 800 g/ha) came out at 64%; in the series on Xanthium spinosum (read-out: Data (measured value) Xanthium spinosum, 800 g/ha), 45%; in the series on Aeschynomene indica (read-out: Data (measured value) Aeschynomene indica, 800 g/ha), 55%. Besides, the “Data (measured value) Digitaria sanguinalis” value with Digitaria sanguinalis (200 g/ha), with Digitaria sanguinalis (400 g/ha) and with Digitaria sanguinalis (800 g/ha) was 0 throughout.

On to `Nc1c(Cl)c(Cl)nc(C(=O)O)c1Cl` [Picloram], for which the “Data (measured value) Echinochloa crus” value in the series with Echinochloa crus (25 g/ha), with Echinochloa crus (50 g/ha) and in the series with Echinochloa crus (100 g/ha) was 0 throughout. The pest or weed control at 25 g/ha with Abutilon theophrasti, in the series with Xanthium spinosum and with Aeschynomene indica was 9% in each case. The values for the pest or weed control at 50 g/ha with Abutilon theophrasti, with Xanthium spinosum and in the series with Aeschynomene indica were 28%, 26% and 21%, respectively. Further, the values for the pest or weed control at 100 g/ha in the series with Abutilon theophrasti, in the series on Xanthium spinosum and with Aeschynomene indica were 65%, 56% and 52%, respectively. Moreover, the “Data (measured value) Digitaria sanguinalis” value with Digitaria sanguinalis (25 g/ha), in the series on Digitaria sanguinalis (50 g/ha) and in the series on Digitaria sanguinalis (100 g/ha) was 0 throughout.
